One assay has as its system HAS2. The assay can be described thus: HAS2 mRNA expression (RT-qPCR), Huh7. The class given is cell-based, human. As to conditions: Huh7 cells. As to the method:
(§1) Since HAS mRNA levels often correspond to the activity of hyaluronan synthesis, the effect of 4MUR on HAS2 and HAS3 expression was assessed. To this end, cells with a concentration of 100,000 cells/ml were cultured on 6-well plates and treated with 4MUR (500 μM) for 24 h. Total RNA was extracted using the TriReagent (Sigma Aldrich) according to the manufacture's protocol. RNA was quantified at 260 nm in a DU®730 spectrophotometer (Beckman Coulter, Fullerton, CA, USA). The RNA purity was evaluated according to MIQE guidelines by measuring the ratio A260/A280. […] RT-qPCR for HAS2, HAS3 genes was performed using iQ SYBR Green Supermix protocol (Bio-Rad Laboratories, Milan, Italy). Each PCR amplification was carried out following manufactures instructions (iQ SYBR Green Supermix-Bio-Rad) in a Bio-Rad iQ5 real-time PCR detection system (iCycler IQ5 software, version 3.1; Bio-Rad) Expression was normalized to actin with two reference genes.
On the technique in general: In qPCR the cycle at which signal appears reflects the starting amount.

The test system of assay [1] is Huh7 (human hepatic cell line). The assay can be described thus: Cell viability (CellTiter), Huh7. The class given is cell-based. Particulars: for IC50: Huh7 cells. As to the method:
In order to evaluate the therapeutic efficacy and potential cytotoxicity of the glycoconjugated drug of the invention for the treatment of HCC, cell viability assays were carried out in different cell lines. To this end, an in vitro model was designed. The cells used for in vitro assay were a murine hepatic cell line (Hepa1-6) and a human hepatic cell line (Huh7). Chemiograms were performed using increasing doses of the compound 4-MU as well as the glycosylated compound 4MUR (0-2000 μM). Cell viability was measured by using the CellTiter kit (Promega Corporation). Proliferation was measured through a tritiated thymidine incorporation assay, by incubating the cells for 48 h with either one of the compounds (4MU/4MUR) or culture medium (RPMI) in the presence of 3H-thymidine (Migliore-LaClaustra).

A further assay concerns Hepa129 cells. As to the kind of experiment: Proliferation by 3H-thymidine incorporation, Hepa129. The class given is cell-based, murine. As to conditions: for dose at which proliferation was significantly decreased: Hepa129, 48 h, 3H-thymidine. Here is the method: Chemiograms were performed using increasing doses of the compound 4-MU as well as the glycosylated compound 4MUR (0-2000 μM). Cell viability was measured by using the CellTiter kit (Promega Corporation). Proliferation was measured through a tritiated thymidine incorporation assay, by incubating the cells for 48 h with either one of the compounds (4MU/4MUR) or culture medium (RPMI) in the presence of 3H-thymidine (Migliore-LaClaustra). After incubation, cells were harvested and centrifuged to remove ^3H-thymidine from the supernatant. The cell pellet was lysed with sterile distilled water (200 μl) and said volume was added to paper filters for retaining cell DNA with incorporated ^3H-thymidine. Each paper filter was impregnated in a tube containing scintillation liquid and each sample was run and read using a liquid scintillator counter (Beckman) detecting […] per minute emitted by tritium (^3H). Results are expressed as counts per minute (cpm) for each sample. Proliferation capacity of murine Hepa129 cells treated with 4MU and 4MUR was evaluated, as measured by ^3H-thymidine incorporation.
(In general: Dividing cells build labelled thymidine or BrdU into new DNA.)

The next assay relates to HAS3. The assay can be described thus: HAS3 mRNA expression (RT-qPCR), Huh7. The class given is cell-based, human. As to conditions: Huh7 cells. Here is the method:
as §1

The test system of assay [2] is α-SMA, TGF-β, COL1A2, TIMP-1, MMP-9 in CFSC-2G cells. The assay can be described thus: Fibrotic-related gene expression by qPCR, CFSC-2G. The class given is cell-based, rat. As to conditions: 48 h. Here is the method: The effect of 4MUR on liver fibrogenesis was assessed by the expression of the fibrotic-related genes including α-SMA, TGF-β, profibrogenic (COL1A2 and TIMP-1), and the antifibrogenic gene matrix metalloproteinase (MMP-9) on CFSC-2G cells by qPCR.

Assay [3] has as its system Hepa1-6 (murine hepatic cell line). The assay can be described thus: Cell viability, Hepa1-6. The class given is cell-based. As to conditions: Hepa 1.6 cells, compared with 4-MU. Here is the method: In order to evaluate the therapeutic efficacy and potential cytotoxicity of the glycoconjugated drug of the invention for the treatment of HCC, cell viability assays were carried out in different cell lines.
To this end, an in vitro model was designed. The cells used for in vitro assay were a murine hepatic cell line (Hepa1-6) and a human hepatic cell line (Huh7).
Chemiograms were performed using increasing doses of the compound 4-MU as well as the glycosylated compound 4MUR (0-2000 μM). Cell viability was measured by using the CellTiter kit (Promega Corporation). Proliferation was measured through a tritiated thymidine incorporation assay, by incubating the cells for 48 h with either one of the compounds (4MU/4MUR) or culture medium (RPMI) in the presence of 3H-thymidine (Migliore-LaClaustra).

For assay [4], the system named is orthotopic Hepa129 tumors. The assay can be described thus: Orthotopic hepatocellular carcinoma model associated with advanced fibrosis induced by TAA. The class given is in vivo, C3H/He mice. Particulars: oral administration 200 mg/kg/day.

One may read the IC50 as the point on the concentration scale where inhibition reaches its midpoint. A low value points to greater potency in that assay.

Take `Cc1cc(=O)oc2cc(O)ccc12` [4MU, 4-Methylumbelliferone, reference compound]: in the assay on HAS2, the “expression of HAS2” value is reported as “did not affect”. Further, in assay [1] (Homo sapiens, Huh-7), the IC50 was over 2000 µM. Also, the lowered proliferation in the assay on Hepa129 cells (Hepa129, 1 mM) is reported as 50%. Also, in the assay on Hepa129 cells, the “dose at which proliferation was significantly decreased” value turned out to be 1 mM. Also, the HAS3 up-regulation result in the assay on HAS3 is recorded as “around 3.5 fold”.

Consider `Cc1cc(=O)oc2cc(O[C@@H]3O[C@H](CO[C@@H]4O[C@@H](C)[C@H](O)[C@@H](O)[C@H]4O)[C@@H](O)[C@H](O)[C@H]3O)ccc12` [4MUR, 4-methylumbelliferyl-rutinoside], for which the “expression of HAS2” value with HAS2 is listed as “significantly reduced”. The “increase of 4MU antitumoral effect by glycosylation” value in assay [1] (Huh7, 4MUR compared to 4MU) is reported as 2.2. Further, inhibition in assay [1] was half-maximal at 488 µM (IC50). Besides, in assay [2], the COL1A2 expression entry is given as “strongly downregulated”, the MMP-9 expression result was “not affected”, the TGF-β expression entry is given as “strongly downregulated” and the TIMP-1 expression entry was “strongly downregulated”. For the same molecule, the α-SMA expression result in assay [2] is “strongly downregulated”. In addition, the “in vitro antitumoral effect” value in assay [3] was “significantly higher than 4-MU”. Further, the “lower dose for significant decrease of proliferation vs 4MU” value in the assay with Hepa129 cells (Hepa129) was found to be 10 times. For the same molecule, the “proliferation” value in the assay with Hepa129 cells (Hepa129, 1 mM) is reported as “did not proliferate”. The “dose at which proliferation was significantly decreased” value in the assay with Hepa129 cells was 0.1 mM. Besides, the “efficacy against hepatocellular carcinoma” value in assay [4] was “efficient”. The “expression of HAS3” value in the assay on HAS3 was “significantly reduced”.

The record behind these values is US20250222114A1, “GLYCOCONJUGATED DRUG FOR THE TREATMENT OF HEPATOCELLULAR CARCINOMA” (priority 2021, published 2025).
